The results in this text go back to patent publication US20230263822A1, “MODULATION OF FACTOR 11 EXPRESSION” (Ionis Pharmaceuticals, Inc., priority 2008, published 2023).

Series [1] concerns human Factor 11 mRNA. The experiment in a line: Dose-dependent antisense inhibition of human Factor 11 in HepG2 cells, lipofectin 9.375-150 nM (Example 2). The series is classed as cell-based. As to conditions: ~16 h.
The subject of series [2] is human Factor 11 mRNA. The experiment in a line: Dose-dependent inhibition of human Factor 11 in HepG2 cells, electroporation 375-12,000 nM (Example 32). The series is classed as cell-based. Particulars: for Percent inhibition of Factor 11 mRNA at 375 nM / Percent inhibition of Factor 11 mRNA at 750 nM / IC50: electroporation; for Percent inhibition of Factor 11 mRNA at 375 nM / Percent inhibition of Factor 11 mRNA at 750 nM / Percent inhibition of Factor 11 mRNA at 1,500 nM / Percent inhibition of Factor 11 mRNA at 3,000 nM / Percent inhibition of Factor 11 mRNA at 6,000 nM / Percent inhibition of Factor 11 mRNA at 12,000 nM: approx. 16 hours, relative to untreated control cells; for Percent inhibition of Factor 11 mRNA at 1,500 nM: electroporation, 1,500 nM; for Percent inhibition of Factor 11 mRNA at 3,000 nM: electroporation, 3,000 nM; for Percent inhibition of Factor 11 mRNA at 6,000 nM: electroporation, 6,000 nM; for Percent inhibition of Factor 11 mRNA at 12,000 nM: electroporation, 12,000 nM; for IC50: Factor 11 mRNA expression. The procedure:
These gapmers were tested at various doses in HepG2 cells. Cells were plated at a density of 20,000 cells per well and transfected using electroporation with 375 nM, 750 nM, 1,500 nM, 3,000 nM, 6,000 nM and 12,000 nM concentrations of antisense oligonucleotide, as specified in Table 47. After a treatment period of approximately 16 hours, RNA was isolated from the cells and Factor 11 mRNA levels were measured by quantitative real-time PCR. Human Factor 11 primer probe set RTS 2966 was used to measure mRNA levels. Factor 11 mRNA levels were adjusted according to total RNA content, as measured by RIBOGREEN. Results are presented as percent inhibition of Factor 11, relative to untreated control cells.
ISIS 416850, ISIS 416858, ISIS 445522, and ISIS 445531 (see Table 45 above) were re-tested in vitro along with the microwalk gapmers under the same conditions described above.
The first two listed gapmers in Table 47 are the original gapmers (ISIS 416850 and ISIS 416858) from which the remaining gapmers were designed via microwalk and are designated by an asterisk.

Series [3] is described as follows: Tolerability in CD1 mice: body weight and organ weights (Example 37). As to conditions: 50 mg/kg s.c. twice per week for 6 weeks; for body weight: increase in grams over the PBS control weight taken before the start of treatment; for Kidney weight / Liver weight / Spleen weight: percentage of the body weight.
Protocol: Body weight was measured at the onset of the study and subsequently twice per week. The body weights of the mice are presented in Table 80 and are expressed increase in grams over the PBS control weight taken before the start of treatment. Liver, spleen, and kidney weights were measured at the end of the study, and are also presented in Table 80 as percentage of the body weight.
Series [4] is described as follows: Tolerability in CD1 mice: kidney function (Example 43). Type of series: in vivo. Particulars: 50 mg/kg s.c. twice per week for 6 weeks, plasma.
The nature of series [5]: Tolerability in Sprague-Dawley rats: liver function (Example 44). The series is classed as in vivo. Particulars: 50 mg/kg s.c. twice per week for 6 weeks, plasma. The arrangement: Albumin: unit not given here.
Series [6] in a line: Tolerability in Sprague-Dawley rats: hematology assays (Example 44). Particulars: 50 mg/kg s.c. twice per week for 6 weeks, blood. The series is classed as in vivo.

Strand notation (5' to 3'): a small letter for the sugar, then the base; units joined by * are phosphorothioate-linked, units joined directly phosphodiester-linked; [ ] holds rarer units or linkages, { } end groups; capitals alone tell only the bases. e = 2'-O-(2-methoxyethyl) (MOE); [5mC] = 5-methylcytosine; d = 2'-deoxy (DNA)

Usually IC50 stands for the midpoint of a concentration-inhibition curve.

On to “412206 (antisense e[5mC]*e[5mC]*eG*eT*eG*d[5mC]*dA*dT*d[5mC]*dT*dT*dT*d[5mC]*dT*dT*eG*eG*e[5mC]*eA*eT) [compound 412206]”, for which, in the series on human Factor 11 mRNA [1], the “percent inhibition of Factor 11 at 9.375 nM” value is given as 28%, the “percent inhibition of Factor 11 at 18.75 nM” value came to 44%, the “percent inhibition of Factor 11 at 37.5 nM” value came to 68% and the “percent inhibition of Factor 11 at 75 nM” value came out at 80%. In addition, in the series with human Factor 11 mRNA [1], the “percent inhibition of Factor 11 at 150 nM” value is 89% and the IC50 worked out at 0.022 µM.

For the substance “412223 (antisense ACAGTTTCTGGCAGGCCTCG; 5-10-5 MOE gapmer, further chemistry not given here) [compound 412223]”, in the series with human Factor 11 mRNA [1], the “percent inhibition of Factor 11 at 9.375 nM” value is on record as 33%, the “percent inhibition of Factor 11 at 18.75 nM” value was 48%, the “percent inhibition of Factor 11 at 37.5 nM” value was 62% and the “percent inhibition of Factor 11 at 75 nM” value stood at 76%. For the same substance, in the series with human Factor 11 mRNA [1], the “percent inhibition of Factor 11 at 150 nM” value was 81% and the IC50 was determined as 0.021 µM.

Turning to “412224 (antisense GCATTGGTGCACAGTTTCTG; 5-10-5 MOE gapmer, further chemistry not given here) [compound 412224]”, in the series on human Factor 11 mRNA [1], the “percent inhibition of Factor 11 at 9.375 nM” value stood at 24%, the “percent inhibition of Factor 11 at 18.75 nM” value worked out at 45%, the “percent inhibition of Factor 11 at 37.5 nM” value was determined as 57% and the “percent inhibition of Factor 11 at 75 nM” value was 70%. Further, in the series on human Factor 11 mRNA [1], the “percent inhibition of Factor 11 at 150 nM” value stood at 81% and the IC50 came out at 0.028 µM.

Turning to “412225 (antisense GCAGCGGACGGCATTGGTGC; 5-10-5 MOE gapmer, further chemistry not given here) [compound 412225]”, in the series on human Factor 11 mRNA [1], the “percent inhibition of Factor 11 at 9.375 nM” value was found to be 32%, the “percent inhibition of Factor 11 at 18.75 nM” value was determined as 42%, the “percent inhibition of Factor 11 at 37.5 nM” value is recorded as 65% and the “percent inhibition of Factor 11 at 75 nM” value was found to be 78%. Also, in the series with human Factor 11 mRNA [1], the “percent inhibition of Factor 11 at 150 nM” value turned out to be 73% and the IC50 worked out at 0.023 µM.

With “413482 (antisense GGACGGCATTGGTGCACAGT; 5-10-5 MOE gapmer, further chemistry not given here) [compound 413482]”, in the series with human Factor 11 mRNA [1], the “percent inhibition of Factor 11 at 9.375 nM” value is recorded as 26%, the “percent inhibition of Factor 11 at 18.75 nM” value is 39%, the “percent inhibition of Factor 11 at 37.5 nM” value is listed as 59% and the “percent inhibition of Factor 11 at 75 nM” value amounted to 74%. Also, in the series with human Factor 11 mRNA [1], the “percent inhibition of Factor 11 at 150 nM” value was 82% and half-maximal inhibition (IC50) was put at 0.028 µM.

For “416850 (antisense TGCACAGTTTCTGGCAGGCC; 5-10-5 gapmer, further chemistry not given here) [compound 416850]”, in the series with human Factor 11 mRNA [2], the “Percent inhibition of Factor 11 mRNA at 375 nM” value (“Percent inhibition … at 375 nM” below) was 40%, the “Percent inhibition of Factor 11 mRNA at 750 nM” value (“Percent inhibition … at 750 nM” for short) was determined as 59%, the “Percent inhibition of Factor 11 mRNA at 1,500 nM” value (from here on “Percent inhibition … at 1,500 nM”) was determined as 69% and the “Percent inhibition of Factor 11 mRNA at 3,000 nM” value (“Percent inhibition … at 3,000 nM” below) was 87%. In the series with human Factor 11 mRNA [2], the “Percent inhibition of Factor 11 mRNA at 6,000 nM” value (shortened to “Percent inhibition … at 6,000 nM”) amounted to 90%, the “Percent inhibition of Factor 11 mRNA at 12,000 nM” value (“Percent inhibition … at 12,000 nM” for short) stood at 95% and inhibition was half-maximal at 0.56 µM (IC50).

Regarding “416858 (antisense ACGGCATTGGTGCACAGTTT; 5-10-5 gapmer, further chemistry not given here) [compound 416858]”, in the series with human Factor 11 mRNA [2], the “Percent inhibition … at 375 nM” value amounted to 31%, the “Percent inhibition … at 750 nM” value was 35%, the “Percent inhibition … at 1,500 nM” value worked out at 78% and the “Percent inhibition … at 3,000 nM” value stood at 85%. Moreover, in the series on human Factor 11 mRNA [2], the “Percent inhibition … at 6,000 nM” value was determined as 90%, the “Percent inhibition … at 12,000 nM” value came to 93% and the 50% inhibitory concentration (IC50) was found to be 0.83 µM.

In the case of “445522 (antisense eG*e[5mC]*eA*e[5mC]*eA*dG*dT*dT*dT*d[5mC]*dT*dG*dG*e[5mC]*eA*eG*eG*e[5mC]) [compound 445522]”, in the series with human Factor 11 mRNA [2], the “Percent inhibition … at 375 nM” value turned out to be 59%, the “Percent inhibition … at 750 nM” value worked out at 71%, the “Percent inhibition … at 1,500 nM” value worked out at 83% and the “Percent inhibition … at 3,000 nM” value is on record as 82%. Besides, in the series on human Factor 11 mRNA [2], the “Percent inhibition … at 6,000 nM” value amounted to 81% and the “Percent inhibition … at 12,000 nM” value worked out at 92%.

Consider “445531 (antisense eG*eG*e[5mC]*eA*eT*dT*dG*dG*dT*dG*d[5mC]*dA*d[5mC]*eA*eG*eT*eT*eT) [compound 445531]”, for which, in the series on human Factor 11 mRNA [2], the “Percent inhibition … at 375 nM” value is recorded as 44%, the “Percent inhibition … at 750 nM” value amounted to 64%, the “Percent inhibition … at 1,500 nM” value is reported as 78% and the “Percent inhibition … at 3,000 nM” value was 86%. Besides, in the series with human Factor 11 mRNA [2], the “Percent inhibition … at 6,000 nM” value stood at 91%; the “Percent inhibition … at 12,000 nM” value was 93%; the midpoint of inhibition, the IC50, lay at 0.44 µM.

In series [3], “ISIS 416850: MOE gapmer, nucleobases 1275 to 1318 of SEQ ID NO: 1 (Table 8) (antisense TGCACAGTTTCTGGCAGGCC; MOE gapmer, wing and gap sizes not given here)” had a body weight of 12 g, a Kidney weight of 1.6%, a Liver weight of 6% and a Spleen weight of 0.4%.

In series [3], “ISIS 416858: MOE gapmer, nucleobases 1275 to 1318 of SEQ ID NO: 1 (Table 8) (antisense ACGGCATTGGTGCACAGTTT; MOE gapmer, wing and gap sizes not given here)” displayed a body weight of 12 g, a Kidney weight of 1.6%, a Liver weight of 7% and a Spleen weight of 0.6%.

In series [3], “ISIS 416864: MOE gapmer, nucleobases 1275 to 1318 of SEQ ID NO: 1 (Table 8) (antisense GGCAGCGGACGGCATTGGTG; MOE gapmer, wing and gap sizes not given here)” registered a body weight of 12 g, a Kidney weight of 1.6%, a Liver weight of 5% and a Spleen weight of 0.3%.

As to “ISIS 449707: 3-8-3, 4-8-4, 2-10-2, 3-10-3 or 4-10-4 MOE microwalk gapmer (Table 46) (antisense e[5mC]*eA*e[5mC]*eA*dG*dT*dT*dT*d[5mC]*dT*dG*dG*e[5mC]*eA*eG*eG)”, in series [4], the BUN is given as 27 mg/dL and the Creatinine was 0.2 mg/dL. Also, in series [5], the ALT turned out to be 61 IU/L, the AST was 199 IU/L, the Albumin was 3.1 and the Bilirubin was 0.2 mg/dL. For the same substance, in series [6], the Platelets amounted to 722 nL⁻¹, the RBC was 6.0 pL⁻¹, the WBC worked out at 20 nL⁻¹ and the hematocrit amounted to 40%. In series [6], this substance returned a hemoglobin of 12.0 g/dL, a lymphocytes of 91%, a monocytes of 2% and a neutrophils of 6%.

In series [4], “ISIS 449708: 3-8-3, 4-8-4, 2-10-2, 3-10-3 or 4-10-4 MOE microwalk gapmer (Table 46) (antisense eA*e[5mC]*eA*dG*dT*dT*dT*d[5mC]*dT*dG*dG*e[5mC]*eA*eG)” came in with a BUN of 28 mg/dL and a Creatinine of 0.2 mg/dL. In series [5], the ALT is recorded as 25 IU/L, the AST was 90 IU/L, the Albumin was 3.2 and the Bilirubin was found to be 0.1 mg/dL. In addition, in series [6], the Platelets was 925 nL⁻¹, the RBC came out at 6.6 pL⁻¹, the WBC was 22 nL⁻¹ and the hematocrit came to 40%. In series [6], this substance had a hemoglobin of 12.2 g/dL, a lymphocytes of 92%, a monocytes of 2% and a neutrophils of 6%.

In series [4], “ISIS 449709: 3-8-3, 4-8-4, 2-10-2, 3-10-3 or 4-10-4 MOE microwalk gapmer (Table 46) (antisense eG*e[5mC]*eA*e[5mC]*dA*dG*dT*dT*dT*d[5mC]*dT*dG*dG*d[5mC]*eA*eG*eG*e[5mC])” had a BUN of 34 mg/dL and a Creatinine of 0.3 mg/dL. In series [5], the ALT is listed as 63 IU/L, the AST was determined as 126 IU/L, the Albumin is recorded as 3.1 and the Bilirubin was 0.2 mg/dL. In series [6], the Platelets came out at 631 nL⁻¹, the RBC came out at 6.9 pL⁻¹, the WBC turned out to be 14 nL⁻¹ and the hematocrit stood at 41%. In series [6], this substance showed a hemoglobin of 12.6 g/dL, a lymphocytes of 91%, a monocytes of 3% and a neutrophils of 5%.
